# Patent publication US10836764B2, “5-HT2C receptor agonists and compositions and methods of use” (Arena Pharmaceuticals, Inc., priority 2016, dated 2020)
# Read-outs that look alike come from different tables or passages of the source.
# Tests used:
# [1] = target: T1, 5-HT2A receptor (Homo sapiens (Human), UniProt P28223); assay: DOI radioligand binding assay, 5-HT2A
# Procedure: (§1) For the compounds of Table A, the following procedure was used. HEK293 cells stably expressing recombinant 5-HT2 receptors were harvested, suspended in ice-cold phosphate buffered saline, pH 7.4 (PBS), and then centrifuged at 48,000 g for 20 min at 4° C. The resulting cell pellet was then re-suspended in wash buffer containing 20 mM HEPES, pH 7.4 and 0.1 mM EDTA, homogenized on ice using a Brinkman Polytron, and centrifuged (48,000 g for 20 min at 4° C.). The pellet was then resuspended in 20 mM HEPES, pH 7.4, homogenized on ice, and centrifuged (48,000 g for 20 min at 4° C.). Crude membrane pellets were stored at −80° C. until used for radioligand binding assays.
# (§2) For the compounds of Table A, the following procedure was used. […] Experiments comprised addition of 95 μL of assay buffer (20 mM HEPES, pH 7.4, 10 mM MgCl2), 50 μL of membranes, 50 μL of radioligand stock, and 5 μL of test compound diluted in assay buffer to 96-well microtiter plates, which were then incubated for 1 h at room temperature. Assay incubations were terminated by rapid filtration through PerkinElmer F/C filtration plates under reduced pressure using a 96-well Packard filtration apparatus, followed by washing three times with ice cold assay buffer. Plates were then dried at 45° C. for a minimum of 2 h. Finally, 25 μL of BetaScint™ scintillation cocktail was added to each well and the plates were counted in a Packard TopCount® scintillation counter. In each competition study, test compounds were dosed at ten concentrations with triplicate determinations at each test concentration.
# [2] = target: T2, 5-HT2C receptor (Homo sapiens (Human), UniProt P28335); assay: DOI radioligand binding assay, 5-HT2C
# T2 sequence (P28335 33-458): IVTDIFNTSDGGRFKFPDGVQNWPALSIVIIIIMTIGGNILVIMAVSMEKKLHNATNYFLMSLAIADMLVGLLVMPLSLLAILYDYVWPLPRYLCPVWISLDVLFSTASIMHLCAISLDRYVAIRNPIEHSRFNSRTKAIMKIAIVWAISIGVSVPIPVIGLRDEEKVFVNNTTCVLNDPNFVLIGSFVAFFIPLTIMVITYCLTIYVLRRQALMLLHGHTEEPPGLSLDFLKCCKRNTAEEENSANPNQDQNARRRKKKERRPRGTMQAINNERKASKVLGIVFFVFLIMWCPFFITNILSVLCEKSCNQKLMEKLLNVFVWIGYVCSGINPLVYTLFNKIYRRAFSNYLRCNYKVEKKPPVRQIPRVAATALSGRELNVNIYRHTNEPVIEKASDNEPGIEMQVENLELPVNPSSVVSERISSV
# Procedure: as §1, §2
# [3] = target: 5-HT2B receptor (Homo sapiens (Human), UniProt P41595); assay: DOI radioligand binding assay, 5-HT2B; settings: [125I]DOI competition, HEK293 cell membranes
# Sequence of 5-HT2B receptor (P41595 whole entry): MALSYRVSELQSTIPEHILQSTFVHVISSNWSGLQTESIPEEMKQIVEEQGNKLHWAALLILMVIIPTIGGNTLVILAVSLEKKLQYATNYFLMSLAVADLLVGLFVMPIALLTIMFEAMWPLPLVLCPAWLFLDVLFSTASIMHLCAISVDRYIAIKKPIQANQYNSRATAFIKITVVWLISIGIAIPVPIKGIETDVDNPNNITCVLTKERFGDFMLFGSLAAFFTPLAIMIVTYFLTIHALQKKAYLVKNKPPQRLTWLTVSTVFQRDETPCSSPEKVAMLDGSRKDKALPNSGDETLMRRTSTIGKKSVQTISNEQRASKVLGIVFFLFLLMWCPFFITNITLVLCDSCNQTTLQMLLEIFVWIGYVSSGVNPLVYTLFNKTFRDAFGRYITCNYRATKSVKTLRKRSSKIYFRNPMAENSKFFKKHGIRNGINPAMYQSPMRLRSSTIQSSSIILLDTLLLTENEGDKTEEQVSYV
# Procedure: as §1, §2
# [4] = target: T2, 5-HT2C receptor; assay: IP accumulation assay, 5-HT2C; format: cell-based
# Procedure: (§3) HEK293 cells expressing recombinant 5-HT2 receptors were added to sterile poly-D-lysine-coated 96-well microtiter plates (35,000 cells/well) and labeled with 0.6 μCi/well of [^3H]inositol in myoinositol-free DMEM for 18 h. Unincorporated [^3H]inositol was removed by aspiration and replaced with fresh myoinositol-free DMEM supplemented with LiCl (10 mM final) and pargyline (10 μM final). Serially diluted test compounds were then added and incubation was conducted for 2 h at 37° C. (5-HT2B, and 5-HT2A) and RT (5-HT2C). Incubations were then terminated by lysing cells with the addition of ice-cold 0.1 M formic acid followed by freezing at −80° C. After thawing, total [^3H]inositol phosphates were resolved from [^3H]inositol using AG1-X8 ion exchange resin (Bio-Rad) and [^3H]inositol phosphates were measured by scintillation counting using a Perkin Elmer TopCount® scintillation counter. All EC50 determinations were performed using 10 different concentrations and triplicate determinations were made at each test concentration.
# [5] = target: T1, 5-HT2A receptor; assay: IP accumulation assay, 5-HT2A; format: cell-based
# Procedure: as §3
# [6] = [125I]DOI competition, HEK293 cell membranes, read-out: DOI Binding 5HT2A
# [7] = IP accumulation, HEK293 cells, 2 h at RT, read-out: EC50 5HT2C
# [8] = IP accumulation, HEK293 cells, 2 h at 37° C., read-out: EC50 5HT2A
# T1 sequence (P28223 whole entry): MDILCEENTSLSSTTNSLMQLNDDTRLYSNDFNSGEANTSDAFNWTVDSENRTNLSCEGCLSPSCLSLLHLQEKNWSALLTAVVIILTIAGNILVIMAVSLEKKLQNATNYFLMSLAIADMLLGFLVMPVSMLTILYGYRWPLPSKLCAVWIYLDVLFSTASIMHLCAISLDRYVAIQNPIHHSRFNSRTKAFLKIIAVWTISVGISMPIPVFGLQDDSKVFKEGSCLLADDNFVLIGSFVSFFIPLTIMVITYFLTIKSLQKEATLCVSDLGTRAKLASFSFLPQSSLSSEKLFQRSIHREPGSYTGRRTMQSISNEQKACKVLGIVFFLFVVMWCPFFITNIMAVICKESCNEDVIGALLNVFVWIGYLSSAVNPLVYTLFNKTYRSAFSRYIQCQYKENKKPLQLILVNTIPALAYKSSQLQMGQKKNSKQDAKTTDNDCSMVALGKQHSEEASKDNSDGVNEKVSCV
Compound,"Ki [1, 6]",Ki [2],Ki [3],also measured
"CCc1ccnc2c1CC[C@@H]1CNCCN21 [Compound 110, (R)-4-ethyl-6,6a,7,8,9,10-hexahydro-5H-pyrazino[1,2-a][1,8]naphthyridine]",16.1 nM,0.562 nM,,
"CN1CCN2c3nccc(CCC(F)(F)F)c3CC[C@@H]2C1 [Compound 168, (R)-8-methyl-4-(3,3,3-trifluoropropyl)-6,6a,7,8,9,10-hexahydro-5H-pyrazino[1,2-a][1,8]naphthyridine]",58 nM,,331 nM,
"C/C=C/Cc1ccnc2c1CC[C@@H]1CNCCN21 [Compound 144, (R,E)-4-(but-2-en-1-yl)-6,6a,7,8,9,10-hexahydro-5H-pyrazino[1,2-a][1,8]naphthyridine]",5.01 nM,0.548 nM,,
"COCCc1ccnc2c1CC[C@@H]1CNCCN21 [Compound 107, (R)-4-(2-methoxyethyl)-6,6a,7,8,9,10-hexahydro-5H-pyrazino[1,2-a][1,8]naphthyridine]",99.5 nM,,177 nM,
"c1cc(CC2CCCCO2)c2c(n1)N1CCNC[C@H]1CC2 (stereo partly drawn) [Compound 132, (6aR)-4-((tetrahydro-2H-pyran-2-yl)methyl)-6,6a,7,8,9,10-hexahydro-5H-pyrazino[1,2-a][1,8]naphthyridine]",212 nM,,1090 nM,
"Brc1cncc2c1CC[C@@H]1CNCCN21 [Compound 172, (R)-4-bromo-6,6a,7,8,9,10-hexahydro-5H-pyrazino[1,2-a][1,7]naphthyridine]",72.3 nM,,13 nM,
"N#CCCc1ccnc2c1CC[C@@H]1CNCCN21 [Compound 142, (R)-3-(6,6a,7,8,9,10-hexahydro-5H-pyrazino[1,2-a][1,8]naphthyridin-4-yl)propanenitrile]",840 nM,,665 nM,
"Fc1ccccc1Cc1ccnc2c1CC[C@@H]1CNCCN21 [Compound 116, (R)-4-(2-fluorobenzyl)-6,6a,7,8,9,10-hexahydro-5H-pyrazino[1,2-a][1,8]naphthyridine]",2.65 nM,0.304 nM,,EC50 [4]: 0.314 nM; EC50 [5]: 152 nM
"CCc1c(CCC#N)cnc2c1CC[C@@H]1CNCCN21 [Compound 162, (R)-3-(4-ethyl-6,6a,7,8,9,10-hexahydro-5H-pyrazino[1,2-a][1,8]naphthyridin-3-yl)propanenitrile]",1260 nM,,251 nM,
"c1ccc(Cc2ccnc3c2CC[C@@H]2CNCCN32)cc1 [Compound 106, (R)-4-benzyl-6,6a,7,8,9,10-hexahydro-5H-pyrazino[1,2-a][1,8]naphthyridine]",1.19 nM,0.277 nM,,"EC50 [4, 7]: 0.116 nM; EC50 [5, 8]: 53.2 nM"
"CC(C)OCc1ccnc2c1CC[C@@H]1CNCCN21 [Compound 145, (R)-4-(isopropoxymethyl)-6,6a,7,8,9,10-hexahydro-5H-pyrazino[1,2-a][1,8]naphthyridine]",222 nM,,209 nM,
"CCc1c(CC2CCCCO2)cnc2c1CC[C@@H]1CNCCN21 (stereo partly drawn) [Compound 165, (6aR)-4-ethyl-3-((tetrahydro-2H-pyran-2-yl)methyl)-6,6a,7,8,9,10-hexahydro-5H-pyrazino[1,2-a][1,8]naphthyridine]",890 nM,,,Ki ([2]; read-out: DOI Binding 5HT2C): 570 nM
"CCCc1ccnc2c1CC[C@@H]1CNCCN21 [Compound 113, (R)-4-propyl-6,6a,7,8,9,10-hexahydro-5H-pyrazino[1,2-a][1,8]naphthyridine]",6.85 nM,0.162 nM,,EC50 [4]: 0.0656 nM
"Clc1ncnc2c1CC[C@@H]1CNCCCN21 [Compound 160, (R)-4-chloro-5,6,6a,7,8,9,10,11-octahydropyrimido[5′,4′:5,6]pyrido[1,2-a][1,4]diazepine]",100000 nM,,1830 nM,Ki ([2]; read-out: DOI Binding 5HT2C): 5560 nM
"CCCCCc1ccnc2c1CC[C@@H]1CNCCN21 [Compound 108, (R)-4-pentyl-6,6a,7,8,9,10-hexahydro-5H-pyrazino[1,2-a][1,8]naphthyridine]",2.3 nM,0.401 nM,,
"c1csc(-c2ccnc3c2CC[C@@H]2CNCCN32)c1 [Compound 126, (R)-4-(thiophen-2-yl)-6,6a,7,8,9,10-hexahydro-5H-pyrazino[1,2-a][1,8]naphthyridine]",68.8 nM,,122 nM,
"c1cc(CC2CCCC2)c2c(n1)N1CCNC[C@H]1CC2 [Compound 170, (R)-4-(cyclopentylmethyl)-6,6a,7,8,9,10-hexahydro-5H-pyrazino[1,2-a][1,8]naphthyridine]",,0.79 nM,,
"FC(F)(F)CCc1ccnc2c1CC[C@@H]1CNCCCN21 [Compound 157, (R)-4-(3,3,3-trifluoropropyl)-5,6,6a,7,8,9,10,11-octahydro-[1,4]diazepino[1,2-a][1,8]naphthyridine]",1140 nM,,721 nM,
"CCc1c(CC2CCCCC2)cnc2c1CC[C@@H]1CNCCN21 [Compound 164, (R)-3-(cyclohexylmethyl)-4-ethyl-6,6a,7,8,9,10-hexahydro-5H-pyrazino[1,2-a][1,8]naphthyridine]",703 nM,,,Ki ([2]; read-out: DOI Binding 5HT2C): 233 nM
"c1cc(COCC2CCOCC2)c2c(n1)N1CCNC[C@H]1CC2 [Compound 133, (R)-4-(((tetrahydro-2H-pyran-4-yl)methoxy)methyl)-6,6a,7,8,9,10-hexahydro-5H-pyrazino[1,2-a][1,8]naphthyridine]",1670 nM,,844 nM,Ki ([2]; read-out: DOI Binding 5HT2C): 1250 nM
"Brc1ccnc2c1CC[C@@H]1CNCCCN21 [Compound 156, (R)-4-bromo-5,6,6a,7,8,9,10,11-octahydro-[1,4]diazepino[1,2-a][1,8]naphthyridine]",1390 nM,,127 nM,
"CSc1nc(Cl)c2c(n1)N1CCCNC[C@H]1CC2 [Compound 159, (R)-4-chloro-2-(methylthio)-5,6,6a,7,8,9,10,11-octahydropyrimido[5′,4′:5,6]pyrido[1,2-a][1,4]diazepine]",12300 nM,,272 nM,Ki ([2]; read-out: DOI Binding 5HT2C): 1600 nM
"c1ncc2c(c1CC1CCCCC1)CC[C@@H]1CNCCN21 [Compound 174, (R)-4-(cyclohexylmethyl)-6,6a,7,8,9,10-hexahydro-5H-pyrazino[1,2-a][1,7]naphthyridine]",107 nM,,140 nM,
"CCCCc1ccnc2c1CC[C@@H]1CNCCN21 [Compound 112, (R)-4-butyl-6,6a,7,8,9,10-hexahydro-5H-pyrazino[1,2-a][1,8]naphthyridine]",10.6 nM,0.5 nM,,
"CC(C)c1ccnc2c1CC[C@@H]1CNCCN21 [Compound 111, (R)-4-isopropyl-6,6a,7,8,9,10-hexahydro-5H-pyrazino[1,2-a][1,8]naphthyridine]",,0.874 nM,,
"Clc1ccc(-c2ccnc3c2CC[C@@H]2CNCCN32)nc1 [Compound 146, (R)-4-(5-chloropyridin-2-yl)-6,6a,7,8,9,10-hexahydro-5H-pyrazino[1,2-a][1,8]naphthyridine]",5390 nM,,1020 nM,Ki ([2]; read-out: DOI Binding 5HT2C): 3110 nM
"Fc1cccc(Cc2ccnc3c2CC[C@@H]2CNCCN32)c1 [Compound 115, (R)-4-(3-fluorobenzyl)-6,6a,7,8,9,10-hexahydro-5H-pyrazino[1,2-a][1,8]naphthyridine]",,0.195 nM,,"EC50 [4, 7]: 0.19 nM; EC50 [5, 8]: 37.2 nM; Ki [1]: 0.506 nM"
